The record followed here is patent publication US20240140986A1, “SYNTHETIC URSOLIC ACID DERIVATIVES AND METHODS OF USE THEREOF” (REATA PHARMACEUTICALS, INC., priority 2021, published 2024).

In experiment [1] the test system is Nrf2 / ARE-dependent luciferase in AREc32 reporter cell line. Kind of experiment: AREc32 luciferase reporter activation (Nrf2 induction). In kind it is cell-based, human. The settings on record: for EC (2-fold): Homo sapiens, Arec32; for Relative Avg AREc32 EC2X Relative to RTA402 (fold): ratio to RTA402. A digest of the protocol:
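EC2X is the concentration raising luminescence 2-fold above DMSO-treated cells, from a nonlinear-regression dose–response fit. Compounds (0.03–1000 nM) were applied for nineteen hours, starting one day after seeding 20,000 reporter cells per well. Luciferase was read with One-Glo reagent.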

The subject of experiment [2] is IFNγ-induced NO production in RAW 264.7 cells. Kind of experiment: Nitric Oxide Suppression Assay (IFNγ-induced NO, Griess nitrite readout). In kind it is cell-based, mouse. The settings on record: for IC50: Mus musculus; for Avg NO IC50 Relative to RTA402 (fold): Table 2, ratio to RTA402. A digest of the protocol: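 Nitrite, a surrogate for NO, was measured by Griess reagent (525 nm) and quantified from standards by linear regression, expressed as percent of DMSO plus IFNγ control to give IC50. RAW 264.7 cells had 2 h compound pretreatment, then 24 h with 20 ng/mL IFNγ; WST-1 checked viability.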

Setting [3] is: Table 2, concentration increasing luminescence 2-fold above vehicle, 19 h treatment, read-out: Avg AREc32 EC2X (nM) (Mean ± SD).
Setting [4] is: RAW264.7, Table 2, RAW 264.7 cells, 2 h pretreatment, 20 ng/mL interferon gamma 24 h, read-out: Avg NO IC50 (nM) (Mean ± SD).
Setting [5] is: Table 3, ursolic acid derivatives, read-out: Avg ARE EC-2X (nM) (Mean ± SD).
Setting [6] is: RAW264.7, Table 3, ursolic acid derivatives, read-out: Avg NO IC50 (nM) (Mean ± SD).

Like-named read-outs stand apart in the source and are kept apart here.

On to `C[C@@H]1[C@H]2[C@H]3C(=O)C=C4[C@@]5(C)C=C(C#N)C(=O)C(C)(C)[C@@H]5CC[C@@]4(C)[C@]3(C)CC[C@@]2(c2nc(CCO)no2)CC[C@H]1C` [Compound T5], for which the EC (2-fold) in experiment [1] (setting [3]) is 2.4 ± 0.75 nM. In addition, in experiment [1] (Table 2), the “Relative Avg AREc32 EC2X Relative to RTA402 (fold)” value worked out at 0.224 ± 0.196 fold. Further, the IC50 in experiment [2] (setting [4]) was found to be 1.81 ± 0.331 nM. In experiment [2], the “Avg NO IC50 Relative to RTA402 (fold)” value stood at 1.24 ± 0.13 fold.

In the case of `C[C@@H]1[C@H]2[C@H]3C(=O)C=C4[C@@]5(C)C=C(C#N)C(=O)C(C)(C)[C@@H]5CC[C@@]4(C)[C@]3(C)CC[C@@]2(CC(=O)O)CC[C@H]1C` [Compound T89], the EC (2-fold) in experiment [1] (setting [3]) is 3.62 ± 1.73 nM. In experiment [1] (Table 2), the “Relative Avg AREc32 EC2X Relative to RTA402 (fold)” value was found to be 0.345 ± 0.161 fold. Also, in experiment [2] (setting [4]), the half-inhibitory concentration (IC50) turned out to be 14.6 ± 2.2 nM. Also, in experiment [2], the “Avg NO IC50 Relative to RTA402 (fold)” value is given as 8.03 ± 3.23 fold.

`C[C@@H]1[C@H]2[C@H]3C(=O)C=C4[C@@]5(C)C=C(C#N)C(=O)C(C)(C)[C@@H]5CC[C@@]4(C)[C@]3(C)CC[C@@]2(n2cc(Br)cn2)CC[C@H]1C` [Compound T63]: the EC (2-fold) in experiment [1] (setting [3]) was determined as 76 ± 9.6 nM. In experiment [1] (Table 2), the “Relative Avg AREc32 EC2X Relative to RTA402 (fold)” value is on record as 6.8 ± 1.1 fold. Besides, the IC50 in experiment [2] (setting [4]) was 58.4 ± 9.1 nM. For the same compound, the “Avg NO IC50 Relative to RTA402 (fold)” value in experiment [2] was 23.3 ± 10.3 fold.

Turning to `CC1(C)CC[C@]2(CN3NCCC3=O)CC[C@]3(C)[C@H](C(=O)C=C4[C@@]5(C)C=C(C#N)C(=O)C(C)(C)[C@@H]5CC[C@]43C)[C@@H]2C1` [CC54, reference compound], in experiment [1] (Table 3, oleanolic acid derivative analogs, read-out: Avg ARE EC-2X), the EC (2-fold) stood at 11.7 nM. Moreover, the IC50 in experiment [2] (RAW264.7, Table 3, oleanolic acid derivative analogs, read-out: Avg NO IC50) worked out at 8.6 nM.

For `COC(=O)[C@]12CC[C@@H](C)[C@H](C)[C@H]1[C@H]1C(=O)C[C@@H]3[C@@]4(C)C=C(C#N)C(=O)C(C)(C)[C@@H]4CC[C@@]3(C)[C@]1(C)CC2` [Compound T101], in experiment [1] (setting [3]), the EC (2-fold) came to 142 ± 29 nM. In addition, the “Relative Avg AREc32 EC2X Relative to RTA402 (fold)” value in experiment [1] (Table 2) is 15.8 ± 2.1 fold. The IC50 in experiment [2] (setting [4]) turned out to be 102 ± 15 nM. Besides, in experiment [2], the “Avg NO IC50 Relative to RTA402 (fold)” value is on record as 67.7 ± 3.62 fold.

With `[2H]C([2H])([2H])C(=O)NC[C@]12CC[C@@H](C)[C@H](C)[C@H]1[C@H]1C(=O)C=C3[C@@]4(C)C=C(C#N)C(=O)C(C)(C)[C@@H]4CC[C@@]3(C)[C@]1(C)CC2` [Compound T24], the EC (2-fold) in experiment [1] (setting [3]) and in experiment [1] (setting [5]) was 1.49 ± 0.31 nM throughout. Besides, in experiment [1] (Table 2), the “Relative Avg AREc32 EC2X Relative to RTA402 (fold)” value came out at 0.126 ± 0.026 fold. Moreover, the IC50 in experiment [2] (setting [4]) and in experiment [2] (setting [6]) was 2.87 ± 1.67 nM in each case. In addition, the “Avg NO IC50 Relative to RTA402 (fold)” value in experiment [2] came out at 0.967 ± 0.21 fold.

`C[C@@H]1[C@H]2[C@H]3C(=O)C=C4[C@@]5(C)C=C(C#N)C(=O)C(C)(C)[C@@H]5CC[C@@]4(C)[C@]3(C)CC[C@@]2(Cn2ccnn2)CC[C@H]1C` [Compound T50]: the EC (2-fold) in experiment [1] (setting [3]) and in experiment [1] (setting [5]) was 8.26 ± 1.39 nM throughout. The “Relative Avg AREc32 EC2X Relative to RTA402 (fold)” value in experiment [1] (Table 2) turned out to be 0.666 ± 0.148 fold. Further, the IC50 in experiment [2] (setting [4]) and in experiment [2] (setting [6]) was 9.81 ± 2.79 nM in each case. In addition, the “Avg NO IC50 Relative to RTA402 (fold)” value in experiment [2] stood at 3.18 ± 0.30 fold.

As a reminder, the IC50 is the concentration needed to halve the response being measured.
